On to `CC(=O)c1cccc(Br)c1`, for which the log partition coefficient (logP) came to 2.58.
To `Oc1cc2ccccc2cc1O` belongs 2.24; to `Oc1cccc2c(O)cccc12`, 2.19; to `CC(=O)c1ccccc1Br`, 2.28.
The result for `CC(=O)c1ccc(Br)cc1` reads 2.57; that for `Cc1cc2ccccc2o1`, 3.22.
To `OCC1c2ccccc2-c2ccccc21` belongs 2.89; to `Oc1ccc2c(c1)CCCC2`, 2.9.
In turn, `O=[N+]([O-])c1ccc(F)cc1` returned a logP of 1.89.
In turn, `Oc1ccc2cc(O)ccc2c1` returned a logP of 1.9. The logP values of the last two molecules are within 0.2 log units of each other.
`O=[N+]([O-])c1cccc(F)c1` came in with a logP of 2.02.
Molecule `O=Cc1cccc(Cl)c1` gave a logP of 2.26.
`O=[N+]([O-])c1ccccc1F` returned a logP of 1.84.
The result for `O=[N+]([O-])c1cc(F)cc(F)c1` reads 2.03; that for `O=C(CBr)c1ccccc1`, 2.19.
Take `OC1CCCc2ccccc21` (configuration not stated): the logP amounted to 1.98.
`O=Cc1ccccc1Cl` showed a logP of 2.28.
The result for `CC(=O)c1cccc(Cl)c1` reads 2.43; that for `OCc1cccc2ccccc12`, 2.37.
The molecule `O=[N+]([O-])c1cc(F)ccc1F` yielded a logP of 1.86.
The result for `CCCc1ccccc1O` reads 2.93; that for `CC(O)c1ccc2ccccc2c1` (configuration not stated), 2.68.

By logP is commonly meant the decadic logarithm of the partition coefficient of the neutral form, usually between octanol and water.

Values taken from the SangsterLogP compilation.
